Data on two compounds can be found in US10398751B2, “Pharmaceutical compositions of water soluble peptides with poor solubility in isotonic conditions and methods for their use” (STRONGBRIDGE IRELAND LIMITED, priority 2016, dated 2019).

Counter-ions that a name gives are not always drawn. Like-named read-outs stand apart in the source and are kept apart here.

Series [1] in a line: Pharmacokinetics of IR formulations in minipigs. Conditions: minipig, plasma, sc; for bioavailability: read-out: Minipigs absolute BA (F %); for AUC(0-t) / Tmax: minipigs. The format is in vivo.
The nature of series [2]: Comparative surface tension of peptides in water for injection. Type of series: physicochemical. Conditions: 10 mg/ml in WFI.
Series [3] is described as follows: Emulsification of cottonseed oil and water for injection. Type of series: physicochemical. How it is done: Based on its amphiphilic properties, veldoreotide acetate was evaluated by means of emulsion formulation. […] Thus, veldoreotide acetate may be considered a w/o ionic surfactant or hydrotrope with a hydrophilic lipophilic balance (HLB) of 6.
The samples were mixed using 25G syringe and vortexed at room temperature.
Veldoreotide was formulated as a water in oil emulsion using 80% (wt %) cottonseed oil, 20% (wt %) water for injection (WFI) and 1% (wt %) veldoreotide acetate. Specifically, 10 mg of veldoreotide acetate was dissolved in 200 uL WFI in a 5 mL glass vial, 800 mg of cottonseed oil was added and the resulting mixture was stirred under magnetic stirring at room temperature for 15 minutes at 1000 rpm. The emulsion was then viewed under the light microscope and stored under refrigeration. The resulting emulsion was stable and found to be injectable via 27G needle.

The subject of series [4] is human lymphocytes. Nature of the series: Human peripheral blood lymphocytes proliferation assays. The format is cell-based.
The nature of series [5]: Solubility in Tris-HCl and lysine solutions. Type of series: physicochemical. How it is done: In light of the solubility of veldoreotide acetate in Tris-HCl, the solubility of veldoreotide acetate was tested in solutions containing L-lysine and L-lysine HCl.
Where [6] appears, read: 0.1 mg/kg, IR, SC, 0.1 mg/Kg, DEX:PEP 5:1 saline.
The mark [7] stands for this setting: 0.4 mg/kg, IR, SC, 0.4 mg/Kg, DEX:PEP 5:1 saline.
Setting [8] is: 0.4 mg/kg, IR, SC, 0.4 mg/Kg, HPB:PEP 15:1 saline.
[9] abbreviates: 0.1 mg/kg, IR, SC 0.1 mg/Kg, DEX:PEP 5:1 saline.
[10] abbreviates: 0.1 mg/kg, IR, SC 0.1 mg/Kg, Lactic acid buffer.
Where [11] appears, read: 0.4 mg/kg, IR, SC 0.4 mg/Kg, DEX:PEP 5:1 saline.
Setting [12] is: 0.4 mg/kg, IR, SC 0.4 mg/Kg, HPB:PEP 15:1 saline.
Setting [13] is: 0.4 mg/kg, IR, SC 0.4 mg/Kg, Lactic acid buffer.

Regarding `C[C@@H](O)[C@@H]1NC(=O)[C@H](CCCCN)NC(=O)[C@@H](Cc2c[nH]c3ccccc23)NC(=O)[C@H](Cc2c[nH]c3ccccc23)NC(=O)[C@H](Cc2ccccc2)NC(=O)CCCNC(=O)CCCN(CC(N)=O)C(=O)[C@H](Cc2ccccc2)NC1=O` [Veldoreotide, cyclo(-γ-aminobutyryl-L-phenylalanyl-L-tryptophanyl-D-tryptophanyl-L-lysyl-L-threonyl-L-phenylalanyl-N-carbamoylmethyl-γ-aminobutyryl)], the bioavailability is 91% in series [1] (setting [6]); 45% in series [1] (0.1 mg/kg, pH 4, IR, SC, 0.1 mg/Kg, Lactic acid buffer pH 4); 88.4% in series [1] (setting [7]); 85.3% in series [1] (setting [8]); 69% in series [1] (0.4 mg/kg, pH 4, IR, SC, 0.4 mg/Kg, Lactic acid buffer pH 4). Besides, the Cmax – broadly, the highest concentration seen after dosing – in series [1] (setting [7]) is 238 ng/mL; in series [1] (setting [8]), 255 ng/mL; in series [1] (0.4 mg/kg, pH 4, IR, Lactic acid buffer pH 4), 108 ng/mL. In addition, the “Effect of reduced surface tension (%)” value in series [2] (baseline WFI) was −37%. For the same compound, in series [2] (baseline WFI 52), the “Water surface tension (dyne/cm)” value came out at 33 dyne/cm. Besides, in series [3] (16.6 weight % cottonseed oil, 74.2 weight % WFI, 9.2 weight % peptide, room temperature), the emulsification result was “allowing an emulsion to form”.
For the compound `C[C@@H](O)[C@@H]1NC(=O)[C@H](CCCCN)NC(=O)[C@@H](Cc2c[nH]c3ccccc23)NC(=O)[C@H](Cc2c[nH]c3ccccc23)NC(=O)[C@H](Cc2ccccc2)NC(=O)CCCNC(=O)CCCN(CC(N)=O)C(=O)[C@H](Cc2ccccc2)NC1=O` [Veldoreotide Acetate, Cyclo(-γ-aminobutyryl-L-phenylalanyl-L-tryptophanyl-D-tryptophanyl-L-lysyl-L-threonyl-L-phenylalanyl-N-carbamoylmethyl-γ-aminobutyryl), acetate salt], the Cmax in series [1] (setting [6]) was 53 ng/mL; in series [1] (0.1 mg/kg, pH 4, IR, Lactic acid buffer pH 4), 29 ng/mL. For the same compound, the AUC(0-t) – broadly, the area under the concentration-time curve up to a stated or last time point – in series [1] (setting [9]) is 53 ng·h/mL; in series [1] (setting [10]), 26 ng·h/mL; in series [1] (setting [11]), 205 ng·h/mL; in series [1] (setting [12]) it was 198 ng·h/mL; in series [1] (setting [13]), 161 ng·h/mL. The time of peak concentration (Tmax) (in general, the time from dosing to the highest level) in series [1] (setting [9]) was 60 min; in series [1] (setting [10]), 30 min; in series [1] (setting [11]), 30 min; in series [1] (setting [12]) it was 15 min; in series [1] (setting [13]) it was 60 min. In addition, in series [4], the “mitogenicity for human lymphocytes” value was “non-mitogenic”. The “hydrophilic lipophilic balance (HLB)” value in series [3] (w/o ionic surfactant or hydrotrope) is on record as 6. Moreover, the solubility entry in series [5] (20 mM Tris-HCl) is “highly soluble”; in series [5] (Tris-HCl increased to 137 mM or 117 mM NaCl added) it was “significantly reduced”. Besides, the “effect on solubility of veldoreotide acetate” value in series [5] (addition of L-lysine HCl, isotonic media) was “substantially improved”; in series [5] (solution containing L-lysine), “did not substantially improve”.
